Entries after “also recorded” stand apart in the source; their conditions may differ. Where two headings read alike, the source gives them in different places.
What was measured:
[1] = tested on: P. falciparum Gombak A (CQ-resistant); experiment: pLDH antimalarial assay, P. falciparum Gombak A; assay type: cell-based, Plasmodium falciparum; details: for EC50: 48 h; for Selectivity Index (SI) (CC50MTT/EC50pLDH) P. falciparum Gombak A (CQ-resistant): Vero CC50 / Gombak A EC50
[2] = tested on: P. knowlesi PKA1H1; experiment: pLDH antimalarial assay, P. knowlesi A1H1; assay type: cell-based, Plasmodium knowlesi; details: for EC50: Plasmodium knowlesi, 24 h, read-out: P. knowlesi PKA1H1 EC50 (μM) ± SD; for Selectivity Index (SI) (CC50MTT/EC50pLDH) P. knowlesi PKA1H1: Vero CC50 / PKA1H1 EC50
[3] = tested on: zebrafish embryos; experiment: Zebrafish embryo acute toxicity; assay type: in vivo, zebrafish (Danio rerio); details: for effect on early embryonic development: zebrafish embryos at 24 hpf
[4] = tested on: zebrafish larvae; experiment: Zebrafish cardiotoxicity; assay type: in vivo, zebrafish (Danio rerio); details: zebrafish larvae at 72 hpf
[5] = tested on: transgenic zebrafish line Tg(kdrl:egfp); experiment: Blood vessel formation in transgenic zebrafish Tg; assay type: in vivo, zebrafish (Danio rerio); details: 30 hpf
[6] = tested on: Vero cell (Normal cell); experiment: MTT cytotoxicity assay against Vero cells; assay type: cell-based; details: read-out: Vero cell (Normal cell) CC50 (μM) ± SD, 72 h, three independent experiments
[7] = tested on: zebrafish embryos; experiment: Spontaneous tail coiling; assay type: in vivo, zebrafish (Danio rerio); details: zebrafish embryos at 24 hpf, 6.25-50 μM, vs 0.1% DMSO
[8] = tested on: P. falciparum 3D7 (CQ-sensitive); experiment: pLDH antimalarial assay, P. falciparum 3D7; assay type: cell-based, Plasmodium falciparum; details: for Selectivity Index (SI) (CC50MTT/EC50pLDH) P. falciparum 3D7 (CQ-sensitive): Vero CC50 / 3D7 EC50; for antimalarial activity category against CQ-sensitive P. falciparum 3D7: category by EC50 range
[9] = Solubility in egg water; assay type: physicochemical; details: zebrafish egg water
[10] = tested on: parasites; details: mice, dosage of 5 mg/kg, four days after treatment; cited from earlier work
[11] = Plasmodium falciparum, read-out: P. falciparum Gombak A (CQ-resistant) EC50 (μM) ± SD, pLDH assay, 48 h, three independent experiments
[12] = zebrafish, 72 hpf, up to 200 μM
[13] = up to 200 μM, 2 h after treatment
[14] = Plasmodium falciparum, 3D7, 48 h, read-out: P. falciparum 3D7 (CQ-sensitive) EC50 (μM) ± SD, pLDH assay, 48 h, three independent experiments
[15] = read-out: P. falciparum 3D7 (CQ-sensitive) EC50 (μM) ± SD, pLDH assay, 48 h, three independent experiments

Row | SMILES | EC50 [1, 11] [µM] | Selectivity Index (SI) (CC50MTT/EC50pLDH) P. falciparum Gombak A (CQ-resistant) [1] | EC50 [2] [µM] | Selectivity Index (SI) (CC50MTT/EC50pLDH) P. knowlesi PKA1H1 [2] | Selectivity Index (SI) (CC50MTT/EC50pLDH) P. falciparum 3D7 (CQ-sensitive) [8] | antimalarial activity category against CQ-sensitive P. falciparum 3D7 [8] | EC50 [8, 14] [µM] | EC50 [8, 15] [µM] | also measured
1 | CCN(CC)CCCC(C)Nc1ccnc2cc(Cl)ccc12 (centres unmarked) [CQ, chloroquine, reference compound] | 5.56 ± 3.2 |  |  |  |  |  |  |  | 
2 | COc1cccc(C=CC(=O)C=Cc2cccc(OC)c2OC)c1OC [MS33A, 1,5-Bis(2,3-dimethoxyphenyl)penta-1,4-dien-3-one] | 87.5 ± 0.9 | 1.0 | 3.6 ± 0.2 | 22.9 | 26.6 | active |  |  | effect on early embryonic development ([3]; 100 μM (not at 50 μM and lower)): gastrulation defects; heart development (edema) ([3]; zebrafish, 72 hpf, 50 μM (not at 25 μM)): heart edema; heart rate ([4]; 12.5 μM): relatively normal; heart rate ([4]; 25 and 50 μM): decrease in heartbeats; development of intersegmental vessels (ISVs) ([5]; 50 μM (not at 25 μM)): affected ISVs development; also recorded: inhibitory effects on ISV development; CC50 [6]: 82.6 ± 1.7 µM; mean STC activity [7]: No significant change
3 | COc1ccc(OC)c(C=CC(=O)C=Cc2cc(OC)ccc2OC)c1 [MS33C, 1,5-Bis(2,5-dimethoxyphenyl)penta-1,4-dien-3-one] | 56.2 ± 1.3 | 2.9 | 5.1 ± 0.2 | 32.0 | 65.2 | active | < 5 | 2.5 ± 0.4 | effect on early embryonic development ([3]; up to 200 μM): no significant effect; morphological changes / heart development [3, 12]: no detectable morphological changes; also recorded: no effect on normal heart development; heart rate [4, 13]: no obvious abnormalities; also recorded: normal heart beats; development of intersegmental vessels (ISVs) ([5]; up to 200 μM): no effect on normal vessel development; also recorded: no significant difference; CC50 [6]: 163 ± 1.8 µM; mean STC activity [7]: No significant change
4 | COc1cccc(OC)c1C=CC(=O)C=Cc1c(OC)cccc1OC [MS33D, 1,5-Bis(2,6-dimethoxyphenyl)penta-1,4-dien-3-one] | 74.4 ± 2.4 | 3.0 | 23.7 ± 2.6 | 9.5 | 10.4 |  | 21.7 ± 0.8 |  | 
5 | COc1cc(C=CC(=O)C=Cc2cc(OC)c(OC)c(OC)c2)cc(OC)c1OC [MS34C, 1,5-Bis(3,4,5-trimethoxyphenyl)penta-1,4-dien-3-one] |  | 15.4 | 11.8 ± 1.1 | 11.4 | 84.0 | active |  |  | effect on early embryonic development ([3]; up to 200 μM): no significant effect; morphological changes / heart development [3, 12]: no detectable morphological changes; also recorded: no effect on normal heart development; heart rate [4, 13]: no obvious abnormalities; also recorded: normal heart beats; development of intersegmental vessels (ISVs) ([5]; up to 200 μM): no effect on normal vessel development; also recorded: no significant difference; CC50 [6]: 134 ± 3.2 µM; mean STC activity [7]: No significant change
6 | O=C(C=Cc1cccc(Cl)c1)C=Cc1cccc(Cl)c1 [MS40B, 1,5-Bis(3-chlorophenyl)penta-1,4-dien-3-one] | 45.6 ± 1.3 | 3.6 | 16.6 ± 0.5 | 9.9 | 12.0 | active | 13.7 ± 0.8 |  | 
7 | O=C1C(=Cc2ccccc2Cl)CCCC1=Cc1ccccc1Cl [MS47, 2,6-Bis(2-chlorobenzylidene)cyclohexanone] | 51.4 ± 2.7 | 3.3 | 21.7 ± 1.2 | 7.9 | 10.6 | active | 16.1 ± 0.5 |  | 
8 | COc1cccc(C=C2CCCC(=Cc3cccc(OC)c3OC)C2=O)c1OC [MS69, 2,6-Bis(2,3-dimethoxybenzylidene)cyclohexanone] | 28.7 ± 2 |  | 324 ± 5.9 |  |  |  | > 500 | 785.8 ± 4.2 | 
9 | COc1ccc(C=C2CCCC(=Cc3ccc(OC)c(OC)c3OC)C2=O)c(OC)c1OC [MS72A, 2,6-Bis(2,3,4-trimethoxybenzylidene)cyclohexanone] | > 200 |  | 507.5 ± 1.3 |  |  |  | > 500 | 530 ± 3.6 | 
10 | COc1cc(C=C2CCCC(=Cc3cc(OC)c(OC)c(OC)c3)C2=O)cc(OC)c1OC [MS72C, 2,6-Bis(3,4,5-trimethoxybenzylidene)cyclohexanone] | > 200 |  | 430.1 ± 2.3 |  |  |  | > 500 | 515.1 ± 4.9 | 
11 | O=C1C(=Cc2ccccc2F)CCC1=Cc1ccccc1F [MS78, 2,5-Bis(2-fluorobenzylidene)cyclopentanone] | > 200 |  | 355 ± 7.1 |  |  |  | > 500 | 689.1 ± 4.2 | 
12 | O=C1C(=Cc2cccc(F)c2)CCC1=Cc1cccc(F)c1 [MS79, 2,5-Bis(3-fluorobenzylidene)cyclopentanone] | > 200 |  | 195 ± 2.7 |  |  |  | > 500 | 329.3 ± 2.6 | 
13 | COc1cc(C=C2CCC(=Cc3cc(OC)c(OC)c(OC)c3)C2=O)cc(OC)c1OC [MS87, 2,5-Bis(3,4,5-trimethoxybenzylidene)cyclopentanone] | 1.85 to 8.75 | 304.9 | 11.4 ± 0.9 | 49.5 | 52.2 | active | 10.8 ± 1.3 |  | EC50 ([1]; read-out: P. falciparum Gombak A (CQ-resistant) EC50 (μM) ± SD, pLDH assay, three independent experiments): 1.85 ± 2.8 µM; solubility in egg water [9]: problems with solubility in egg water
14 | COc1cc(/C=C/C(=O)CC(=O)/C=C/c2ccc(O)c(OC)c2)ccc1O [free curcumin, curcumin] |  |  |  |  |  |  |  |  | suppression of parasites [10]: 40.5%
